# Article PMC11654702, “Mechanisms underlying modulation of human GlyRα3 by Zn^2+ and pH” (Science Advances, 2024)
# T1: GlyRα3 (Homo sapiens, UniProt O75311)
# T1 construct: gene GLRA3; full-length, C-terminal thrombin site and 8x histidine tag, homopentamer in peptidisc (cryo-EM); full-length in Xenopus oocytes (TEVC)
# T1 sequence (O75311 34-464): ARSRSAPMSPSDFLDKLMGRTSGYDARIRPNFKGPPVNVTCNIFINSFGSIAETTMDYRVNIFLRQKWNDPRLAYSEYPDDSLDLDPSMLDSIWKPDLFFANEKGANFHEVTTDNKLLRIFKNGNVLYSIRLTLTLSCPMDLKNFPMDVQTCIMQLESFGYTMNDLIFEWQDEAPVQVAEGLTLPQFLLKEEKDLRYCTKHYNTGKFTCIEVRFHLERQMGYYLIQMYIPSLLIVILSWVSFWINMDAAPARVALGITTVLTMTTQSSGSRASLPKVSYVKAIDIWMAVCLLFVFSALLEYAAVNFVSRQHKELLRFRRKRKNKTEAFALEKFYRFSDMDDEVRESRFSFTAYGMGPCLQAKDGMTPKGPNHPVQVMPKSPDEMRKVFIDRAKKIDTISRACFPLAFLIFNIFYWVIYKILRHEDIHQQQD
# Tests used:
# GlyRα3 = target: T1, GlyRα3; assay: cryo-EM structures with glycine density; EC50 by two-electrode voltage clamp in Xenopus oocytes; assay type: cell-based
# [1] = target: the molecule itself; assay: cryo-EM structure; GlyRα3 in peptidisc, 0.3 to 1 mg/ml, 20 mM Hepes, 150 mM NaCl, pH 8.0 or pH 6.4; 0.1 or 1 mM glycine, without or with 1 or 100 μM ZnCl2; final maps refined with C5 symmetry
molecule,measurement,setting,value
NCC(=O)O [glycine],EC50,GlyRα3,213 ± 13 µM
"full-length human GlyRα3 (receptor, UniProt O75311 34-464, looked up, Glycine receptor subunit alpha-3, human, UniProt O75311, full-length codon-optimized GLRA3 gene; last residue printed as Asp431 on mature numbering; ICD Lys312-Arg385 not modelled in the maps; Homopentamer reconstituted in peptidisc (NSP peptide scaffold); the models are numbered without it; also called hGlyRα3; glycine receptor α3; source: Sf9 cells (baculovirus, pFastBac1), purified (DDM …)) ARSRSAPMSPSDFLDKLMGRTSGYDARIRPNFKGPPVNVTCNIFINSFGSIAETTMDYRVNIFLRQKWNDPRLAYSEYPDDSLDLDPSMLDSIWKPDLFFANEKGANFHEVTTDNKLLRIFKNGNVLYSIRLTLTLSCPMDLKNFPMDVQTCIMQLESFGYTMNDLIFEWQDEAPVQVAEGLTLPQFLLKEEKDLRYCTKHYNTGKFTCIEVRFHLERQMGYYLIQMYIPSLLIVILSWVSFWINMDAAPARVALGITTVLTMTTQSSGSRASLPKVSYVKAIDIWMAVCLLFVFSALLEYAAVNFVSRQHKELLRFRRKRKNKTEAFALEKFYRFSDMDDEVRESRFSFTAYGMGPCLQAKDGMTPKGPNHPVQVMPKSPDEMRKVFIDRAKKIDTISRACFPLAFLIFNIFYWVIYKILRHEDIHQQQD",stoichiometry N,[1],5
